A short description of data set [1]: logP by reversed-phase HPLC (EEC Directive 79/831 Annex V.A8). In kind it is physicochemical. The note with it: * LC-MS, acidic range, pH 2.7, 0.1% aqueous formic acid / acetonitrile. From the text: [table] The calibration is effected with unbranched alkan-2-ones (having 3 to 16 carbon atoms) with known log P values (log P values determined on the basis of the retention times by linear interpolation between two successive alkanones).

Data set [2] relates to Boophilus microplus females of the SP-resistant Parkhurst strain. Put plainly: Boophilus microplus (dip). In kind it is in vivo. The note with it: 100 ppm, after 7 days, laying of fertile eggs. The protocol: Boophilus microplus (dip)
Test animals: adult engorged Boophilus microplus females of the SP-resistant Parkhurst strain
Solvent: Dimethyl Sulphoxide
10 mg of active ingredient are dissolved in 0.5 ml of dimethyl sulphoxide. For the purpose of preparing a suitable formulation, the active ingredient solution is diluted with water to the concentration desired in each case. This active ingredient preparation is pipetted into tubes. 8-10 ticks are transferred into a further tube with holes. The tube is immersed into the active ingredient formulation, and all ticks are completely wetted. After the liquid has run out, the ticks are transferred onto filter discs in plastic dishes and stored in a climate-controlled room. The activity is assessed after 7 days by laying of fertile eggs. Eggs whose fertility is not outwardly visible are stored in glass tubes in a climate-controlled cabinet until the larvae hatch. Efficacy of 100% means that none of the ticks has laid any fertile eggs.

The subject of another data set is Boophilus microplus. Put plainly: Boophilus microplus test (BOOPMI injection). In kind it is in vivo. As to conditions: 20 μg/animal, injection into abdomen, after 7 days, laying of fertile eggs. The protocol:
Boophilus microplus Test (BOOPMI Injection) Solvent: Dimethyl Sulphoxide To prepare an appropriate active ingredient formulation, 10 mg of active ingredient are mixed with 0.5 ml of solvent and the concentrate is diluted with solvent to the desired concentration. The active ingredient solution is injected into the abdomen (Boophilus microplus), and the animals are transferred into dishes and stored in a climate-controlled room. The efficacy is assessed by laying of fertile eggs. After 7 days, the efficacy in % is determined. 100% means that none of the ticks has laid any fertile eggs.

The test system of a further data set is Lucilia cuprina larvae. Description: Lucilia cuprina test (LUCICU). In kind it is in vivo. The note with it: 100 ppm, treated horse meat, after 2 days. The protocol: Lucilia cuprina Test (LUCICU) Solvent: Dimethyl Sulphoxide To prepare an appropriate active ingredient formulation, 10 mg of active ingredient are mixed with 0.5 ml of dimethyl sulphoxide and the concentrate is diluted with water to the desired concentration. Vessels containing horse meat treated with the active ingredient preparation of the desired concentration are populated with about 20 Lucilia cuprina larvae. After 2 days, the kill in % is determined. 100% means that all of the larvae have been killed; 0% means that none of the larvae have been killed.

The test system of the next data set is Myzus persicae. Description: Myzus test (MYZUPE spray treatment). In kind it is in vivo. The note with it: 500 g/ha, Chinese cabbage discs, after 6 days. The procedure: Myzus test (MYZUPE Spray Treatment) Solvent: 78 parts by weight of acetone • • 1.5 parts by weight of dimethylformamide Emulsifier: 0.5 part by weight of alkylaryl polyglycol ether To prepare an appropriate active ingredient preparation, 1 part by weight of active ingredient is mixed with the stated amounts of solvent and emulsifier, and the concentrate is diluted with emulsifier-containing water to the desired concentration. Discs of Chinese cabbage (Brassica pekinensis) infested by all stages of the green peach aphid (Myzus persicae) are sprayed with an active ingredient preparation of the desired concentration. After 6 days, the efficacy in % is determined. 100% means that all of the aphids have been destroyed; 0% means that none of the aphids have been destroyed.

The test system of a further data set is Phaedon cochleariae. Description: Phaedon test (PHAECO spray treatment). In kind it is in vivo. As to conditions: 500 g/ha, Chinese cabbage discs, after 7 days. A digest of the protocol: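 Chinese cabbage leaf discs were sprayed with compound formulated in acetone/dimethylformamide with alkylaryl polyglycol ether emulsifier and diluted in emulsifier-containing water. After drying, discs were populated with mustard beetle larvae. Efficacy (% larvae killed; 100% = all dead) was scored after 7 days.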

For another data set, the system named is Spodoptera frugiperda. Description: Spodoptera frugiperda test (SPODFR spray treatment). In kind it is in vivo. As to conditions: 500 g/ha, maize leaf discs, after 7 days. A digest of the protocol: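 Maize leaf discs sprayed with the compound at the desired concentration, formulated in acetone/dimethylformamide with alkylaryl polyglycol ether emulsifier and diluted in water, then infested with armyworm caterpillars after drying. Efficacy read after 7 days as % caterpillars killed (100% = all dead, 0% = none).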

The subject of a further data set is Tetranychus urticae. Put plainly: Tetranychus test, OP-resistant (TETRUR spray treatment). In kind it is in vivo. As to conditions: bean leaf discs, after 6 days.
The subject of a further data set is Ctenocephalides felis. Description: Ctenocephalides felis test (CTECFE). In kind it is in vivo. The note with it: 100 ppm in citrated cow's blood, after 2 days. The procedure:
Ctenocephalides felis Test ([…]) Solvent: 1 Part by Weight of Dimethyl Sulphoxide For the purpose of preparing an appropriate active ingredient formulation, 10 mg of active ingredient are mixed with 0.5 ml of dimethyl sulphoxide. A portion of the concentrate is diluted with citrated cow's blood and the desired concentration is established. About 20 unfed adult fleas (Ctenocephalides felis) are introduced into a chamber closed at the top and bottom with gauze. A metal cylinder, the bottom of which is closed with Parafilm, is placed onto the chamber. The cylinder contains the blood/active ingredient preparation, which can be imbibed by the fleas through the Parafilm membrane. After 2 days, the kill in % is determined. 100% means that all fleas have been killed; 0% means that none of the fleas have been killed.

A further data set has as its system Musca domestica. Put plainly: Musca domestica test. In kind it is in vivo. The note with it: after 2 days. The protocol: Musca domestica Test Solvent: Dimethyl Sulphoxide To prepare an appropriate active ingredient formulation, 10 mg of active ingredient are mixed with 0.5 ml of dimethyl sulphoxide and the concentrate is diluted with water to the desired concentration. Vessels containing a sponge treated with the active ingredient preparation of the desired concentration are populated with adult Musca domestica. After 2 days, the kill in % is determined. 100% means that all of the flies have been killed; 0% means that none of the flies have been killed.

With `COc1nccnc1-n1nc(C(F)(F)F)c(-c2ccc(Cl)c(C(F)(F)F)c2)c1N` [Ex. 18], the “log P” value in [1] was 3.94*. The efficacy in data set [2] was 100%; with Boophilus microplus it was 100%; with Myzus persicae, 90%; with Phaedon cochleariae, 100%; with Spodoptera frugiperda, 83%; in the data set on Tetranychus urticae (500 g/ha), 100%. Further, the “efficacy (kill)” value with Lucilia cuprina larvae is 100%.
Take `COc1nccnc1-n1nc(C(C)(F)F)c(-c2ccc(Cl)c(C(F)(F)F)c2)c1N` [Ex. 20]: the “log P” value in data set [1] is on record as 3.74*. Moreover, the efficacy (in data set [2]; in the data set with Boophilus microplus; in the data set on Myzus persicae; with Phaedon cochleariae; in the data set on Spodoptera frugiperda; in the data set on Tetranychus urticae (500 g/ha)) was 100% each time. Besides, the “efficacy (kill)” value in the data set on Lucilia cuprina larvae came to 100%.
Take `COc1nccnc1-n1nc(C(F)(F)Cl)c(-c2cc(Cl)cc(C(F)(F)F)c2)c1N` [Ex. 17]: in data set [1], the “log P” value is listed as 4.24*. Moreover, the efficacy (in data set [2]; with Boophilus microplus; in the data set with Myzus persicae; with Phaedon cochleariae; with Spodoptera frugiperda; in the data set with Tetranychus urticae (500 g/ha)) was 100% throughout. The “efficacy (kill)” value in the data set on Ctenocephalides felis, in the data set on Lucilia cuprina larvae and in the data set on Musca domestica (100 ppm) was 100% each time.
Regarding `COc1nccnc1-n1nc(C(F)(F)C(F)(F)OC)c(-c2cc(Cl)cc(C(F)(F)F)c2)c1N` [Ex. 47], the “log P” value in data set [1] is 3.98*. In addition, the efficacy in [2] is recorded as 100%; with Boophilus microplus, 100%; in the data set on Myzus persicae, 80%; with Phaedon cochleariae, 100%; with Spodoptera frugiperda it was 100%; in the data set on Tetranychus urticae (500 g/ha), 100%. For the same compound, the “efficacy (kill)” value with Ctenocephalides felis is reported as 100%; in the data set on Lucilia cuprina larvae, 100%; with Musca domestica (100 ppm), 80%.
Turning to `C=Cc1nn(-c2nccnc2OC)c(N)c1-c1cc(Cl)cc(Cl)c1` [Ex. 8], the “log P” value in [1] is on record as 3.51*. Further, the efficacy is listed as 90% in [2], 100% with Boophilus microplus and 100% in the data set on Myzus persicae. For the same compound, in the data set on Lucilia cuprina larvae, the “efficacy (kill)” value was 100%.
`COc1nccnc1-n1nc(C(F)(F)F)c(-c2cc(Br)c3c(c2)OCCO3)c1N` [Ex. 132]: the “log P” value in [1] is recorded as 3.09*. Also, the efficacy in data set [2] is on record as 100%; in the data set on Boophilus microplus, 100%; in the data set with Phaedon cochleariae, 100%; in the data set on Spodoptera frugiperda, 100%; in the data set on Tetranychus urticae (500 g/ha) it was 80%. The “efficacy (kill)” value with Ctenocephalides felis is reported as 100%; in the data set with Lucilia cuprina larvae, 100%; with Musca domestica (100 ppm), 80%.
Consider `COc1nccnc1-n1nc(C(F)(F)F)c(-c2cc(Cl)c3c(c2)OCCO3)c1N` [Ex. 133], for which the “log P” value in [1] is 3.02*. Also, the efficacy is recorded as 95% in data set [2]; 100% in the data set on Boophilus microplus; 100% in the data set on Phaedon cochleariae; 100% in the data set on Spodoptera frugiperda; 90% with Tetranychus urticae (100 g/ha). The “efficacy (kill)” value is 100% with Ctenocephalides felis, 100% with Lucilia cuprina larvae and 80% with Musca domestica (20 ppm).
As for `COc1nccnc1-n1nc(C(F)(F)C(F)(F)F)c(-c2cc(Cl)cc(C(F)(F)F)c2)c1N` [Ex. 15], the “log P” value in data set [1] is given as 4.58*. The efficacy (in data set [2]; in the data set on Boophilus microplus; in the data set with Myzus persicae; with Phaedon cochleariae; with Spodoptera frugiperda; in the data set on Tetranychus urticae (500 g/ha)) was 100% throughout. In addition, the entries for the “efficacy (kill)” value in the data set with Ctenocephalides felis, with Lucilia cuprina larvae and in the data set on Musca domestica (100 ppm) were 95%, 100% and 95%, respectively.
Turning to `COc1cc(-c2c(C(F)(F)F)nn(-c3nccnc3OC)c2N)cc(C(F)(F)F)c1` [compound 26, 1-(3-methoxypyrazin-2-yl)-4-[3-methoxy-5-(trifluoromethyl)phenyl]-3-(trifluoromethyl)-1H-pyrazol-5-amine], the chromatographic logP in [1] (reversed-phase HPLC column, read-out: log P) was determined as 3.63. Further, the efficacy in data set [2] is listed as 90%; with Boophilus microplus, 100%; in the data set with Phaedon cochleariae, 100%; with Spodoptera frugiperda it was 83%; in the data set on Tetranychus urticae (500 g/ha) it was 100%. The results for the “efficacy (kill)” value in the data set on Ctenocephalides felis and with Lucilia cuprina larvae were 95% and 100%, respectively.

The record behind these values is US20120190687A1, “Pyrazinylpyrazoles” (Bayer CropScience Ag, priority 2009, published 2012).
